Experimental data from DBAASP.
≈ marks a conversion by molar mass, not a printed value. Values belong to the molecule of their own block, whether it stands above or below them.

Experiments:
Experiment in all cases: ≥ marks a high value that may be exact or a test limit, other limits are often not marked, values filed in µg/mL are converted to µM
[1] = system: Mycobacterium tuberculosis CAS3
[2] = system: Mycobacterium tuberculosis H37Rv
[3] = system: Mycobacterium tuberculosis WXY
[4] = system: Aeromonas salmonicida 97-4
[5] = system: Aeromonas salmonicida 99-1
[6] = system: Candida albicans C627
[7] = system: Escherichia coli CGSC 4908
[8] = system: Escherichia coli DC2
[9] = system: Escherichia coli UB1005
[10] = system: Pseudomonas aeruginosa K799
[11] = system: Pseudomonas aeruginosa Z61
[12] = system: Salmonella enterica serovar typhimurium MS7953s
[13] = system: Salmonella enterica subsp. enterica serovar Typhimurium ATCC 14028s
[14] = system: Staphylococcus aureus C623
[15] = system: Staphylococcus epidermidis C621
[16] = system: Bacillus cereus ATCC 11778
[17] = system: Bacillus thuringiensis ATCC 10792
[18] = system: Enterococcus faecium CCT 5079
[19] = system: Enterococcus hirae ATCC 10541
[20] = system: Escherichia coli ATCC 11775
[21] = system: Escherichia coli ATCC 25922
[22] = system: Escherichia coli CCT 1457
[23] = system: Micrococcus luteus ATCC 4698
[24] = system: Pseudomonas aeruginosa ATCC 13388
[25] = system: Pseudomonas aeruginosa ATCC 15422
[26] = system: Salmonella enterica subsp. enterica serovar Choleraesuis ATCC 10708
[27] = system: Salmonella enterica subsp. enterica serovar Typhimurium ATCC 14028
[28] = system: Staphylococcus aureus ATCC 25923
[29] = system: Staphylococcus aureus CCT 2580
[30] = system: Staphylococcus aureus CCT 6538
[31] = system: Staphylococcus epidermidis ATCC 12228
[32] = system: Streptococcus mutans AU159
[33] = system: Streptococcus pneumoniae ATCC 11733
[34] = system: Escherichia coli K88
[35] = system: Escherichia coli O157:H7 CICC 21530
[36] = system: Lacticaseibacillus rhamnosus 1.0911
[37] = system: Lacticaseibacillus rhamnosus 1.0936
[38] = system: Lacticaseibacillus rhamnosus 1.9021
[39] = system: Lacticaseibacillus rhamnosus 8014
[40] = system: Pseudomonas aeruginosa ATCC 27853
[41] = system: Pseudomonas aeruginosa PAO1
[42] = system: Salmonella enterica subsp. enterica serovar Choleraesuis CVCC 503
[43] = system: Salmonella enterica subsp. enterica serovar Pullorum C79-13
[44] = system: Staphylococcus aureus ATCC 29213
[45] = system: Staphylococcus aureus ATCC 43300
[46] = system: Streptococcus agalactiae BNCC 185941
[47] = system: Acinetobacter baumannii
[48] = system: Enterobacter cloacae
[49] = system: Escherichia coli ATCC 8739
[50] = system: Escherichia coli KpC+001812446
[51] = system: Klebsiella pneumoniae ATCC 13883
[52] = system: Klebsiella pneumoniae KpC+001825971
[53] = system: Pseudomonas aeruginosa PA14
[54] = system: Staphylococcus aureus ATCC 12600
[55] = system: Staphylococcus aureus

MIC [34]: 8 µM (≈ 10.3 µg/mL)
MIC [35]: ≥ 64 µM
MIC [36]: ≥ 128 µM
MIC [37]: ≥ 128 µM
MIC [38]: ≥ 128 µM
MIC [39]: ≥ 128 µM
MIC [40]: 32 µM (≈ 41 µg/mL)
MIC [41]: 32 µM (≈ 41 µg/mL)
MIC [43]: 8 µM (≈ 10.3 µg/mL)
MIC [27]: 64 µM (≈ 82.1 µg/mL)
MIC [44]: > 128 µM
MIC [45]: > 128 µM
MIC [31]: > 128 µM
MIC [46]: ≥ 128 µM
SMILES: CC(C)C[C@H](NC(=O)[C@H](CCCCN)NC(=O)CNC(=O)[C@H](CCCCN)NC(=O)[C@H](CC(C)C)NC(=O)[C@H](Cc1c[nH]c2ccccc12)NC(=O)[C@H](CC(C)C)NC(=O)[C@H](CCCCN)NC(=O)CNC(=O)[C@H](CCCCN)NC(=O)[C@@H](N)CC(C)C)C(N)=O [LKGKLWLKGKL]
MIC [42]: ≥ 128 µM

MIC [47]: 4 µM (≈ 8.73 µg/mL)
MIC [48]: ≥ 32 µM
MIC [21]: 4 µM (≈ 8.73 µg/mL)
MIC [49]: 14.7 µM (≈ 32 µg/mL)
MIC [50]: 2 µM (≈ 4.37 µg/mL)
MIC [51]: 8 µM (≈ 17.5 µg/mL)
MIC [52]: ≥ 32 µM
MIC [53]: 4 µM (≈ 8.73 µg/mL)
MIC [41]: 4 µM (≈ 8.73 µg/mL)
MIC [54]: 4 µM (≈ 8.73 µg/mL)
MIC [28]: 16 µM (≈ 34.9 µg/mL)
MIC [55]: 16 µM (≈ 34.9 µg/mL)
SMILES: CC[C@H](C)[C@H](NC(=O)[C@H](CCCCN)NC(=O)[C@H](CCCCN)NC(=O)CNC(=O)[C@H](CC(C)C)NC(=O)[C@H](CCCN=C(N)N)NC(=O)[C@H](CCCCN)NC(=O)[C@H](CC(C)C)NC(=O)[C@H](CC(C)C)NC(=O)[C@H](CCCCN)NC(=O)[C@H](CCSC)NC(=O)[C@@H]1CCCN1)C(=O)N[C@@H](CCCN=C(N)N)C(=O)N[C@@H](CC(C)C)C(=O)N[C@@H](C)C(=O)N[C@@H](C)C(=O)N[C@@H](C)C(=O)N[C@@H](Cc1ccccc1)C(=O)N[C@@H](CCCCN)C(=O)O [PMKLLKRLGKKIRLAAAFK]

More lines, now with the values behind:

SMILES: CC(C)C[C@H](NC(=O)[C@H](C)NC(=O)[C@H](C)NC(=O)[C@@H](NC(=O)[C@H](C)N)C(C)C)C(=O)N[C@@H](CC(C)C)C(=O)N[C@@H](CCCN=C(N)N)C(=O)N[C@@H](Cc1c[nH]c2ccccc12)C(=O)N[C@@H](Cc1c[nH]c2ccccc12)C(=O)N[C@@H](CO)C(=O)N[C@@H](CCCN=C(N)N)C(=O)N[C@@H](Cc1c[nH]c2ccccc12)C(=O)N[C@@H](Cc1c[nH]c2ccccc12)C(=O)N[C@@H](C)C(=O)N[C@@H](C)C(=O)O [AVAALLRWWSRWWAA]
MIC [1]: ≥ 40.7 µM
MIC [2]: ≥ 40.7 µM
MIC [3]: ≥ 40.7 µM

SMILES: CC(=O)[C@H](C)NC(=O)[C@H](Cc1ccccc1)NC(=O)[C@H](Cc1cnc[nH]1)NC(=O)[C@H](CCCNC(=N)N)NC(=O)[C@H](CCC(N)=O)NC(=O)[C@H](CO)NC(=O)[C@H](CC(C)C)NC(=O)[C@H](CCCNC(=N)N)NC(=O)[C@H](CCC(=O)O)NC(=O)CNC(=O)[C@H](CCCCN)NC(=O)[C@@H](NC(=O)[C@H](Cc1ccccc1)NC(=O)[C@H](Cc1c[nH]c2ccccc12)NC(=O)[C@H](CCCCN)NC(=O)[C@H](CCCCN)NC(=O)[C@H](Cc1c[nH]c2ccccc12)NC(=O)CN)[C@@H](C)O [GWKKWFTKGERLSQRHFA]
MIC [4]: ≥ 56.6 µM
MIC [5]: 28.3 µM (≈ 63.9 µg/mL)
MIC [6]: 28.3 µM (≈ 63.9 µg/mL)
MIC [7]: 28.3 µM (≈ 63.9 µg/mL)
MIC [8]: 28.3 µM (≈ 63.9 µg/mL)
MIC [9]: 28.3 µM (≈ 63.9 µg/mL)
MIC [10]: 28.3 µM (≈ 63.9 µg/mL)
MIC [11]: 28.3 µM (≈ 63.9 µg/mL)
MIC [12]: 14.1 µM (≈ 32 µg/mL)
MIC [13]: 28.3 µM (≈ 63.9 µg/mL)
MIC [14]: 28.3 µM (≈ 63.9 µg/mL)
MIC [15]: 28.3 µM (≈ 63.9 µg/mL)

SMILES: CC[C@H](C)[C@H](N)C(=O)N[C@@H](CC(N)=O)C(=O)N[C@@H](Cc1c[nH]c2ccccc12)C(=O)N[C@@H](CC(C)C)C(=O)N[C@@H](C)C(=O)N[C@H](C(=O)N[C@@H](C)C(=O)N[C@@H](CCCCN)C(=O)N[C@@H](CCCCN)C(=O)N[C@H](C(=O)N[C@@H](C)C(=O)NCC(=O)N[C@@H](CCSC)C(=O)N[C@@H](CC(C)C)C(N)=O)C(C)C)[C@@H](C)CC [INWLAIAKKVAGML]
MIC [16]: 10.5 µM (≈ 16 µg/mL)
MIC [17]: 5.24 µM (≈ 8 µg/mL)
MIC [18]: 5.24 µM (≈ 8 µg/mL)
MIC [19]: 5.24 µM (≈ 8 µg/mL)
MIC [20]: 5.24 µM (≈ 8 µg/mL)
MIC [21]: 2.62 µM (≈ 4 µg/mL)
MIC [22]: 2.62 µM (≈ 4 µg/mL)
MIC [23]: 2.62 µM (≈ 4 µg/mL)
MIC [24]: ≥ 41.2 µM
MIC [25]: 10.5 µM (≈ 16 µg/mL)
MIC [26]: 10.5 µM (≈ 16 µg/mL)
MIC [27]: 20.3 µM (≈ 31 µg/mL)
MIC [28]: 15.1 µM (≈ 23 µg/mL)
MIC [29]: 2.62 µM (≈ 4 µg/mL)
MIC [30]: 2.62 µM (≈ 4 µg/mL)
MIC [31]: 2.62 µM (≈ 4 µg/mL)
MIC [32]: 2.62 µM (≈ 4 µg/mL)
MIC [33]: 1.31 µM (≈ 2 µg/mL)
